From US20160137639A1, “TRIAZOLE-ISOXAZOLE COMPOUND AND MEDICAL USE THEREOF” (JAPAN TOBACCO INC., priority 2012, published 2016)
Where two headings read alike, the source gives them in different places.

Columns and labels:
[1] = target: T1, mouse RORγ (Mus musculus, UniProt P51450); test: Luciferase reporter gene assay of inhibitory effect against RORγ transcriptional activity (GAL4-mRORγ plasmid in CHO cells); type: cell-based
T1 construct: mouse, NM_011281.2 and from Ile251 to Lys516; expressed in transfected cells; host or cells: CHO cells (transient co-transfection with pG5-Luc reporter)
T1 sequence (P51450 251-516): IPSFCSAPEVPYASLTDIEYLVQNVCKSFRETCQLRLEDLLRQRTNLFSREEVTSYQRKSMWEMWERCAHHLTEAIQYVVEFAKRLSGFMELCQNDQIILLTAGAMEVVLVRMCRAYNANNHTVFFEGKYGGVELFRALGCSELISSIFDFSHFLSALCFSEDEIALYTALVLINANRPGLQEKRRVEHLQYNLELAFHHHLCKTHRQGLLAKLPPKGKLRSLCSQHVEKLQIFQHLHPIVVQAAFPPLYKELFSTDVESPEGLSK
Procedure, shortened: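 CHO cells transiently co-transfected with GAL4-mouse RORγ LBD (Ile251–Lys516) and GAL4-dependent luciferase reporter; eight compound concentrations, 0.1% DMSO, 2 days at 37 °C. Luminescence as %-of-vehicle control; EC50 by curve fit, cytotoxic concentrations excluded.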

[2] = target: T2, human RORγ (Homo sapiens, UniProt P51449); test: Luciferase reporter gene assay of inhibitory effect against RORγ transcriptional activity (GAL4-hRORγ plasmid in CHO cells); type: cell-based
T2 construct: human, NM_005060.3 and from Ser253 to Lys518; expressed in transfected cells; host or cells: CHO cells (transient co-transfection with pG5-Luc reporter)
T2 sequence (P51449 253-518): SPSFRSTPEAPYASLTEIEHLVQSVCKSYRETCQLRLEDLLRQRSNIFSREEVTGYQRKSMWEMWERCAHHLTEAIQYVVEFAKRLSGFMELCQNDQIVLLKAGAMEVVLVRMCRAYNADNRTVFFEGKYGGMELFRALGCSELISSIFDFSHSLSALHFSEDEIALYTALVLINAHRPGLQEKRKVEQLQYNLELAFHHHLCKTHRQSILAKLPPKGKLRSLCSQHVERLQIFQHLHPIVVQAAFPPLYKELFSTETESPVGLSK

Row | Structure (SMILES) | EC50 ([1]; read-out: LUC EC50 (μM) mRORg) | EC50 ([2]; read-out: LUC EC50 (μM) hRORg) | EC50 ([1]; read-out: LUC EC50 mRORg) | EC50 ([2]; read-out: LUC EC50 hRORg)
1 | Cc1c(Cl)cccc1NC(=O)CC(CCO)c1nnc(CCC(C)C)n1C1CC1 (racemic) [Example F-175] | < 3 µM | < 3 µM | – | –
2 | Cc1c(Cl)cccc1NC(=O)CCc1nnc(CC(=O)OC(C)(C)C)n1C1CC1 [Example F-178] | < 3 µM | < 3 µM | – | –
3 | Cc1ccc(NC(=O)CC(c2nnc([C@H]3C[C@@H](CC(C)C)C3)n2C2CC2)C2CN(C(=O)OCc3ccccc3)C2)c(C)c1 (mixture of isomers) [Example F-459] | < 3 µM | < 3 µM | – | –
4 | Cc1cc(F)ccc1NC(=O)C[C@H](CCO)c1nnc([C@H]2C[C@@H](CC(C)C)C2)n1C1CC1 [Example F-594] | – | – | < 3 µM | < 3 µM
5 | Cc1ccc(NC(=O)[C@H]2C(=O)N(C)C[C@@H]2c2nnc(CCCC(C)(C)C)n2C2CC2)c(C)c1 [Example F-302] | < 3 µM | < 3 µM | – | –
6 | Cc1ccc(NC(=O)[C@H]2CN(C(=O)N3CCN(C)CC3)C[C@@H]2c2nnc([C@H]3C[C@@H](CC(C)C)C3)n2C2CC2)c(C)c1 [Example F-655] | – | – | < 3 µM | < 3 µM
7 | O=C(O)CC[C@@H](CC(=O)Nc1ccc(Cl)cc1F)c1noc(-c2cc(C3CCCC3)on2)c1C1CC1 [Example E-59] | < 3 µM | < 3 µM | – | –
8 | CC(C)(C)Cc1cc(-c2noc([C@@H](CCC(=O)O)CC(=O)Nc3ccc(Cl)cc3Cl)c2C2CC2)no1 [Example E-74] | < 3 µM | < 3 µM | – | –
9 | CC(C)(C)C[C@H]1C[C@@H](c2noc([C@@H](CCC(=O)O)CC(=O)Nc3ccc(Cl)cc3Cl)c2C2CC2)C1 [Example F-718] | – | – | < 3 µM | < 3 µM
10 | Cc1cc(Cl)ccc1NC(=O)C[C@H](CCO)c1nnc(-c2cc(CC(C)(C)C)on2)n1C1CC1 [Example F-608] | – | – | < 3 µM | < 3 µM
11 | Cc1ccc(NC(=O)CC(CC#N)c2nnc(CCCC(C)(C)C)n2C2CC2)c(C)c1 (racemic) [Example F-440] | < 3 µM | < 3 µM | – | –
12 | CC(=O)N1C[C@H](C(=O)Nc2ccc(C)cc2C)[C@@H](c2nnc(CCC(C)C)n2C2CC2)C1 (racemic) [Example F-162] | < 3 µM | > 3 µM | – | –
13 | Cc1ccc(NC(=O)CCc2noc(CCC3CCCCC3)c2C2CC2)c(C)c1 [Example F-494] | < 3 µM | < 3 µM | – | –
14 | Cc1ccc(NC(=O)[C@H]2CN(C(=O)C(F)F)C[C@@H]2c2nnc([C@H]3C[C@@H](CC(C)(C)C)C3)n2C2CC2)c(C)c1 [Example F-551] | – | – | < 3 µM | < 3 µM
15 | Cc1ccccc1CNC(=O)CCc1nnc(CCC(C)C)n1C1CC1 [Example F-59] | > 3 µM | > 3 µM | – | –
16 | Cc1cc(Cl)ccc1NC(=O)C[C@H](CCO)c1nnc(-c2cc(CC(C)C)on2)n1C1CC1 [Example F-660] | – | – | < 3 µM | < 3 µM
17 | Cc1ccc(NC(=O)CC(CCO)c2nnc(C(F)(F)CCC(C)(C)C)n2C2CC2)c(C)c1 (racemic) [Example F-366] | < 3 µM | < 3 µM | – | –
18 | CC(=O)N1C[C@H](C(=O)Nc2ccc(C)cc2C)[C@@H](c2nnc([C@H]3C[C@H](OC(C)C)C3)n2C2CC2)C1 (racemic) [Example F-329] | > 3 µM | > 3 µM | – | –
19 | C=CCC(CC(=O)NCc1ccc(C)cc1OC)c1nnc(CCCC(C)C)n1C1CC1 (racemic) [Example F-200] | < 3 µM | < 3 µM | – | –
20 | Cc1ccc(NC(=O)CCc2nnc(CCC3CCCCC3)n2C2CCC2)c(C)c1 [Example F-112] | < 3 µM | > 3 µM | – | –
21 | Cc1ccc(NC(=O)C[C@H](CCC(=O)O)c2noc(-c3cc(C(F)(F)C(C)C)on3)c2C2CC2)c(Cl)c1 [Example E-20] | < 3 µM | < 3 µM | – | –
22 | CC(=O)N1C[C@H](C(=O)Nc2ccc(C)cc2C)[C@@H](c2nnc([C@H]3C[C@@H](OC(C)(C)C)C3)n2C2CC2)C1 (racemic) [Example F-382] | < 3 µM | < 3 µM | – | –
23 | CC(C)CCc1nnc(CCC(=O)NCc2ccc(Cl)cc2)n1C1CC1 [Example F-122] | > 3 µM | > 3 µM | – | –
24 | Cc1ccc(NC(=O)CC(CCC(=O)N(C)C)c2nnc(CCCC(C)C)n2C2CC2)c(C)c1 (racemic) [Example F-286] | < 3 µM | < 3 µM | – | –
25 | Cc1ccc(NC(=O)C[C@H](CCCO)c2nnn([C@H]3C[C@@H](CC(C)(C)C(C)C)C3)c2C(F)(F)F)c(F)c1 [Example F-710] | – | – | < 3 µM | < 3 µM
